Where a SMILES comes first, the peptide text is derived from it. [ ]: non-standard residue; d: D form. The star is where a group is joined. Ac6c = NC1(C(=O)O)CCCCC1; Ac5c = NC1(C(=O)O)CCCC1; Aib = CC(C)(N)C(=O)O; NHiPr = CC(C)N*; Sar = CNCC(=O)O
Assays:
Type in all cases: cell-based
[1] = target: T1, human AT1R (Homo sapiens, UniProt P30556); assay: IP1 accumulation assay (IP1 G-protein assay), human AT1R; settings: for Emax: read-out: Span (relative to hAngII)
T1 sequence (P30556 1-359): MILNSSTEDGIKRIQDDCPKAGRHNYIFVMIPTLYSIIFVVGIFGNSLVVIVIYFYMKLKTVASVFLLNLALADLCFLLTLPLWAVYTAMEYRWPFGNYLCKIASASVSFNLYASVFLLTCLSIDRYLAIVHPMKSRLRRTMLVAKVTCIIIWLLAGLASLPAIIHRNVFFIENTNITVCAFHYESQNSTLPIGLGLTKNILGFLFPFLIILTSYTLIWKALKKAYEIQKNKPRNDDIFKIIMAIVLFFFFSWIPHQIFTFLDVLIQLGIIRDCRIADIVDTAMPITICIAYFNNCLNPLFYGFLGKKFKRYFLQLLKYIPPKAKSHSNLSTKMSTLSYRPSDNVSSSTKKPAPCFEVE
Procedure: (§1) A secondary measure of G protein coupling efficacy was also performed. IP3 is generated by activation of phospholipase C by Gα-q. IP3 is degraded to IP1, which can be forced to accumulate in cells by blocking degradation with lithium chloride. Thus we measured accumulation of IP1 to determine ligand efficacy for G protein activation.
(§2) IP1 accumulation generated by human and rat angiotensin 2 type 1 receptor (human AT1R and rat AT1aR, respectively) was measured with IP-One Tb kits purchased from Cisbio and used per the manufacturer's instructions. Clonal stably transfected cell lines expressing human AT1TR or rat AT1aR were used for all experiments.
(§3) For assays, 4,000-8,000 cells were seeded per well in 384-well small-volume microplates “HiBase” small-volume plate in volumes of 20 uL and allowed to grow overnight at 37° C. in 5% CO2. Cell growth media was then replaced with stimulation buffer supplied by Cisbio containing 50 mM lithium chloride. […] For agonist detection, peptides were then further diluted in stimulation buffer to add peptide to the cells to reach final concentrations ranging from 100 uM to 1 pM. Following addition of peptides, cells were incubated at 37° C. in 5% CO2 for 30 minutes and then lysed with 4 uL of pre-mixed HTRF IP-One reagents diluted per manufacturer's instructions (Cisbio). Microplates were incubated for 60-90 minutes at room temperature and then time-resolved fluorescence intensities were measured using a PHERAstar Plus microplate reader from BMG Labtech. IP1 accumulation was measured as change in ratio of time-resolved fluorescent intensities measured at 665 nm and 620 nm.

[2] = target: T1, human AT1R; assay: beta-arrestin2 recruitment assay (PathHunter), human AT1R; settings: for Emax: 1 h, read-out: Span (relative to hAngII)
Procedure: (§4) The proximal event in β-arrestin function mediated by GPCRs is recruitment to receptors following ligand binding and receptor phosphorylation by GRK's. Thus, the measure of β-arrestin recruitment was used to determine ligand efficacy for β-arrestin function.
(§5) B-arrestin-2 recruitment to the human and rat angiotensin 2 type 1 receptor (human AT1R and rat AT1aR, respectively) was measured with the PathHunter™ μl-arrestin assay (DiscoveRx Corporation, Fremont Calif.). Cells, plasmid(s), and detection reagent(s) were purchased from DiscoveRx, and assays were performed per manufacturer's instructions. Human AT1R and rat AT1aR were cloned into the pCMV-ProLink vector, verified by sequencing, and transfected into PathHunter β-arrestin HEK293 cells. Stably transfected clonal cell lines were selected with Hygromycin and G418. These clonal cell lines were used for all experiments.
(§6) For assays, 4,000-8,000 cells were seeded per well in 384-well microplates “HiBase” small-volume plate in volumes of 20 uL and grown overnight in the incubator (37° C., 5% CO2, saturated humidity). Peptides were dissolved in DMSO to a concentration of 10 mM. Peptides were then further diluted in assay buffer (Hank's balanced salt solution with 20 mM HEPES) to add peptide to the cells to reach final concentrations ranging from 100 μM to 1 pM. Cells were then incubated for 60 minutes at 37° C. in 5% CO2, followed by addition of 2 μL of PathHunter Detection Reagent to each well. The microplates were then incubated at room temperature for 60 minutes, and then luminescence was measured using a PHERAstar Plus microplate reader from BMG Labtech. B-arrestin-2 recruitment to receptors was measured as relative luminescence intensity expressed in arbitrary units.

[3] = target: T2, rat AT1aR (Rattus norvegicus, UniProt P25095); assay: beta-arrestin2 recruitment assay (PathHunter), rat AT1aR; settings: for Emax: 1 h, read-out: Span (relative to hAngII)
T2 sequence (P25095 1-359): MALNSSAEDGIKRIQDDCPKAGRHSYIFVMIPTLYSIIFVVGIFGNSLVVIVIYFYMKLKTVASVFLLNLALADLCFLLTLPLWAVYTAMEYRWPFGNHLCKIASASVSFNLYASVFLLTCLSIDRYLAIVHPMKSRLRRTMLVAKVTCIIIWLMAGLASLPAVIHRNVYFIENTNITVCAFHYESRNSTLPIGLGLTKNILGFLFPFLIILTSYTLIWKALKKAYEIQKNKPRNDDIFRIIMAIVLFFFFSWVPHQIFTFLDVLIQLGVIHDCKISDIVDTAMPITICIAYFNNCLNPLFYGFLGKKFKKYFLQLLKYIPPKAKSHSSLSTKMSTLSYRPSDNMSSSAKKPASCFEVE
Procedure: as §4, §5, §6

[4] = target: T2, rat AT1aR; assay: IP1 accumulation assay (IP1 G-protein assay), rat AT1aR; settings: for Emax: read-out: Span (relative to hAngII)
Procedure: as §1, §2, §3

| Structure (SMILES) | EC50 ([1]; read-out: EC50) [nM] | Emax [1] [%] | EC50 ([1]; read-out: pEC50 (converted)) [nM] | Emax [2] [%] | EC50 ([2]; read-out: EC50) [nM] | EC50 ([2]; read-out: pEC50 (converted)) [nM] | Emax [3] [%] | EC50 ([3]; read-out: EC50) [nM] | EC50 ([3]; read-out: pEC50 (converted)) [nM] | EC50 ([4]; read-out: EC50) [nM] | EC50 ([4]; read-out: pEC50 (converted)) [nM] | Emax [4] [%] | EC50 (nM) [3] | pEC50 [3] |
| --- | --- | --- | --- | --- | --- | --- | --- | --- | --- | --- | --- | --- | --- | --- |
| CNCC(=O)N[C@@H](CCCNC(=N)N)C(=O)N[C@H](C(=O)N[C@@H](Cc1ccc(O)cc1)C(=O)NC1(C(=O)N[C@@H](Cc2c[nH]cn2)C(=O)N2CCC[C@H]2C(=O)N[C@@H](CCCNC(=N)N)C(=O)O)CCCCC1)C(C)C [SEQ ID NO: 42, Sar-Arg-Val-Tyr-cyHex-His-Pro-Arg] (H-[Sar]RVY[Ac6c]HPR-OH) | > 1.3 | < 103 | > 0.631 | < 101 | > 3.2 | > 3.16 | < 105 | > 3.2 | > 3.16 |  |  |  |  |  |
| CNCC(=O)N[C@@H](CCCNC(=N)N)C(=O)N[C@H](C(=O)N[C@@H](Cc1ccc(O)cc1)C(=O)NC1(C(=O)N[C@@H](Cc2c[nH]cn2)C(=O)N2CCC[C@H]2C(=O)N[C@@H](C)C(=O)O)CCCC1)C(C)C [SEQ ID NO: 3, Sar-Arg-Val-Tyr-cyPen-His-Pro-Ala] | > 10000 |  | > 0.631 | < 101 | > 3.2 | > 3.16 | < 105 | > 3.2 | > 3.16 | > 0.6 | > 0.631 |  |  |  |
| CNCC(=O)N[C@@H](CCCNC(=N)N)C(=O)N[C@H](C(=O)N[C@@H](Cc1ccc(O)cc1)C(=O)NC1(C(=O)N[C@@H](Cc2c[nH]cn2)C(=O)N2CCC[C@H]2C(=O)N[C@@H](CCSC)C(=O)O)CCCC1)C(C)C [SEQ ID NO: 23, Sar-Arg-Val-Tyr-cyPen-His-Pro-Met] (H-[Sar]RVY[Ac5c]HPM-OH) | > 1.3 | < 103 | > 0.631 | < 101 | > 3.2 | > 3.16 | < 105 | > 3.2 | > 3.16 | > 0.6 | > 0.631 | < 104 |  |  |
| CNCC(=O)N[C@@H](CCCNC(=N)N)C(=O)N[C@H](C(=O)N[C@@H](Cc1ccc(O)cc1)C(=O)N1CCC[C@H]1C(=O)N[C@@H](Cc1c[nH]cn1)C(=O)N1CCC[C@H]1C(=O)N[C@H](C(=O)O)C(C)C)C(C)C [SEQ ID NO: 6, Sar-Arg-Val-Tyr-Pro-His-Pro-Val] (H-[Sar]RVYPHPV-OH; N-terminus and C-terminus assumed) |  | < 103 |  | < 101 |  |  | < 105 |  |  |  |  | < 104 |  |  |
| CNCC(=O)N[C@@H](CCSC)C(=O)N[C@H](C(=O)N[C@@H](Cc1ccc(O)cc1)C(=O)NC1(C(=O)N[C@@H](Cc2c[nH]cn2)C(=O)N2CCC[C@H]2C(=O)N[C@@H](C)C(=O)O)CCCCC1)C(C)C [SEQ ID NO: 45, Sar-Met-Val-Tyr-cyHex-His-Pro-Ala] (H-[Sar]MVY[Ac6c]HPA-OH; N-terminus and C-terminus assumed) |  | < 103 |  | < 101 |  |  | < 105 |  |  |  |  |  |  |  |
| CNCC(=O)N[C@@H](CCCNC(=N)N)C(=O)N[C@H](C(=O)N[C@@H](Cc1ccc(O)cc1)C(=O)NC1(C(=O)N[C@@H](Cc2c[nH]cn2)C(=O)N2CCC[C@H]2C(=O)N[C@@H](Cc2c[nH]cn2)C(=O)O)CCCCC1)C(C)C [SEQ ID NO: 37, Sar-Arg-Val-Tyr-cyHex-His-Pro-His] (H-[Sar]RVY[Ac6c]HPH-OH) |  |  |  | < 101 | > 3.2 | > 3.16 | < 105 | > 3.2 | > 3.16 | > 0.6 | > 0.631 | < 104 |  |  |
| CNCC(=O)N[C@@H](CCCNC(=N)N)C(=O)N[C@H](C(=O)N[C@@H](Cc1ccc(O)cc1)C(=O)NC1(C(=O)N[C@@H](Cc2c[nH]cn2)C(=O)N2CCC[C@H]2C(=O)N[C@@H](CC(=O)O)C(=O)O)CCCCC1)C(C)C [SEQ ID NO: 44, Sar-Arg-Val-Tyr-cyHex-His-Pro-Asp] (H-[Sar]RVY[Ac6c]HPD-OH) |  |  |  | < 101 | > 3.2 | > 3.16 | < 105 | > 3.2 | > 3.16 | > 0.6 | > 0.631 | < 104 |  |  |
| CNCC(=O)N[C@@H](CCCCN)C(=O)N[C@H](C(=O)N[C@@H](Cc1ccc(O)cc1)C(=O)NC1(C(=O)N[C@@H](Cc2c[nH]cn2)C(=O)N2CCC[C@H]2C(=O)N[C@@H](C)C(=O)O)CCCCC1)C(C)C [SEQ ID NO: 51, Sar-Lys-Val-Tyr-cyHex-His-Pro-Ala] (H-[Sar]KVY[Ac6c]HPA-OH) | > 1.3 | < 103 | > 0.631 | < 101 | > 3.2 | > 3.16 | < 105 | > 3.2 | > 3.16 |  |  |  |  |  |
| CNCC(=O)N[C@@H](CCCNC(=N)N)C(=O)N[C@H](C(=O)N[C@@H](Cc1ccc(O)cc1)C(=O)NC1(C(=O)N[C@@H](Cc2c[nH]cn2)C(=O)N2CCC[C@H]2C(=O)NC(C)C)CCCCC1)C(C)C [SEQ ID NO: 46, Sar-Arg-Val-Tyr-cyHex-His-Pro-NH-i-Pr] (H-[Sar]RVY[Ac6c]HP-NHiPr) | > 1.3 | < 103 | > 0.631 | < 101 | > 3.2 | > 3.16 | < 105 | > 3.2 | > 3.16 |  |  |  |  |  |
| CCCCc1nc(Cl)c(CO)n1Cc1ccc(-c2ccccc2-c2nn[nH]n2)cc1 [losartan, reference compound] |  |  |  |  |  |  |  |  |  |  |  | < 104 | Inactive | Inactive |
| CNCC(=O)N[C@@H](CCCNC(=N)N)C(=O)N[C@H](C(=O)N[C@@H](Cc1ccc(O)cc1)C(=O)N1CCC[C@H]1C(=O)N[C@@H](Cc1c[nH]cn1)C(=O)N1CCC[C@H]1C(=O)N[C@@H](CO)C(=O)O)C(C)C [SEQ ID NO: 8, Sar-Arg-Val-Tyr-Pro-His-Pro-Ser] (H-[Sar]RVYPHPS-OH; N-terminus and C-terminus assumed) |  | < 103 |  | < 101 |  |  | < 105 |  |  |  |  |  |  |  |
| CC[C@H](C)[C@H](NC(=O)[C@@H]1CCCN1C(=O)[C@H](Cc1c[nH]cn1)NC(=O)[C@@H]1CCCN1C(=O)[C@H](Cc1ccc(O)cc1)NC(=O)[C@@H](NC(=O)[C@H](CCCNC(=N)N)NC(=O)CNC)C(C)C)C(=O)O [SEQ ID NO: 4, Sar-Arg-Val-Tyr-Pro-His-Pro-Ile] (H-[Sar]RVYPHPI-OH; N-terminus and C-terminus assumed) |  | < 103 |  | < 101 |  |  | < 105 |  |  |  |  |  |  |  |
| CNCC(=O)N[C@@H](CCCNC(=N)N)C(=O)N[C@H](C(=O)N[C@@H](Cc1ccc(O)cc1)C(=O)NC(C)(C)C(=O)N[C@@H](Cc1c[nH]cn1)C(=O)N1CCC[C@H]1C(=O)N[C@H](C(=O)O)C(C)C)C(C)C [SEQ ID NO: 33, Sar-Arg-Val-Tyr-AA01-His-Pro-Val] (H-[Sar]RVY[Aib]HPV-OH) | > 1.3 | < 103 | > 0.631 | < 101 | > 3.2 | > 3.16 | < 105 | > 3.2 | > 3.16 |  |  |  |  |  |
